Experimental data reported in ChEMBL document CHEMBL4007392, “Modulating Mineralocorticoid Receptor with Non-steroidal Antagonists. New Opportunities for the Development of Potent and Selective Ligands without Off-Target Side Effects” (J Med Chem, 2017).

How the values were obtained:
[1] = biological target: T1, Mineralocorticoid receptor (Rattus norvegicus, UniProt P22199); test: Displacement of [3H]-Aldosterone from MR in rat renal soluble fraction measured after 18 hrs in presence of glucocorticoid receptor antagonist RU-486 by liquid scintillation counting method
T1 sequence (P22199 whole entry): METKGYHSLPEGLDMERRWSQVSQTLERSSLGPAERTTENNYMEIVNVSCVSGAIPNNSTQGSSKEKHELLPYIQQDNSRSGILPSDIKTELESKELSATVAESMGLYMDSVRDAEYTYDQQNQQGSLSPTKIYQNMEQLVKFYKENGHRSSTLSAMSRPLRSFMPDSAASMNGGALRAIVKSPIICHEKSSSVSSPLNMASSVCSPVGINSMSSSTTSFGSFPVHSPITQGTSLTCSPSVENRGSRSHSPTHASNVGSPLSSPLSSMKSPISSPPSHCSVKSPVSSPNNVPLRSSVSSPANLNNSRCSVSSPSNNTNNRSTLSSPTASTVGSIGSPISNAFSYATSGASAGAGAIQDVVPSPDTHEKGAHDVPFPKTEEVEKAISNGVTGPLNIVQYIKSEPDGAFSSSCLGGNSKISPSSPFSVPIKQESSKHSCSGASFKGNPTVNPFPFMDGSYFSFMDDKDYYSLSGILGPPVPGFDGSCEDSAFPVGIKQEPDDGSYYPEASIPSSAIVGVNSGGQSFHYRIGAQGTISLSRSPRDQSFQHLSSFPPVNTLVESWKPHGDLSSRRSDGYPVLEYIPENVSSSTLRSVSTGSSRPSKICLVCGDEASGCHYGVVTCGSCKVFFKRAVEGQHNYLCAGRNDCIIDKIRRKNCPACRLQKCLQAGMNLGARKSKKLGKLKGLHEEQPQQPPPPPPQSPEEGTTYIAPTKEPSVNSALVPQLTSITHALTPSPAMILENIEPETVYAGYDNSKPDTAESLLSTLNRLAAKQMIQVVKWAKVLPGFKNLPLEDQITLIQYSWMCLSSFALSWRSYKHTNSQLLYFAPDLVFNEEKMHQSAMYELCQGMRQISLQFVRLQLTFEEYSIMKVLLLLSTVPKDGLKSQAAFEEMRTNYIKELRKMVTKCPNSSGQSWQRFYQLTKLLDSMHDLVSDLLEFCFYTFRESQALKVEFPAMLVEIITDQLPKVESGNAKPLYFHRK

[2] = biological target: T2, Mineralocorticoid receptor (Homo sapiens, UniProt P08235); test: Antagonist activity at Gal4-fused human MR LBD (734 to 985 residues) expressed in CHO-K1 cells after 5 to 6 hrs by luciferase reporter gene assay; format: cell-based
T2 sequence (P08235 whole entry): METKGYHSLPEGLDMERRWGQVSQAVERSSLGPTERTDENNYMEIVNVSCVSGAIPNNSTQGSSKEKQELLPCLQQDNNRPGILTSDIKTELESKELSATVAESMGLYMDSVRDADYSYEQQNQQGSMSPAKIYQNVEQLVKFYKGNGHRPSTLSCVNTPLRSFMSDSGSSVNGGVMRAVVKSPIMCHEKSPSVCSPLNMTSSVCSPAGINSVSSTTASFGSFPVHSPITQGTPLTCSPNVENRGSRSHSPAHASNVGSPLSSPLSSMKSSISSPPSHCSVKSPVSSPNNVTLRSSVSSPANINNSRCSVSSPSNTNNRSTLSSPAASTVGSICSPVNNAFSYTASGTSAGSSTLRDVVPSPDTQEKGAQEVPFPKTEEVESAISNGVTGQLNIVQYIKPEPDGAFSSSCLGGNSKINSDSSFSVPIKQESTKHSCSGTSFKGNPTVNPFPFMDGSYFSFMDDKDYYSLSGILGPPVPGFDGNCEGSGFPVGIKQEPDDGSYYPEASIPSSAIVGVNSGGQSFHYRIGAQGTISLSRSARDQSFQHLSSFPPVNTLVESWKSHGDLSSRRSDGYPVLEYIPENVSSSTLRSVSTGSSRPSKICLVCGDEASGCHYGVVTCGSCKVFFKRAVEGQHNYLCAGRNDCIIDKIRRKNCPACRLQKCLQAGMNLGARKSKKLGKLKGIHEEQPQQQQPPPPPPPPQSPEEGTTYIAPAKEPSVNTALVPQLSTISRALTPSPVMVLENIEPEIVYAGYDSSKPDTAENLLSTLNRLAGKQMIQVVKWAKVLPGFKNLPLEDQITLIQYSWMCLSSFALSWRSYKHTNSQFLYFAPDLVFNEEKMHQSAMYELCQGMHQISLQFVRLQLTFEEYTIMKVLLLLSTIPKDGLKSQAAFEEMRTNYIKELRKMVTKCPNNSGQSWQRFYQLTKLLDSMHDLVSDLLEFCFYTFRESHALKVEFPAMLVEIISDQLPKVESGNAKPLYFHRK

Progesterone receptor = biological target: T3, Progesterone receptor (Homo sapiens, UniProt P06401); test: Antagonist activity at GAL4-fused human PR LBD (680 to 933 residues) expressed in CHO-K1 cells assessed as inhibition of progesterone-induced transactivation activity after 5 to 6 hrs by luciferase reporter gene assay; format: cell-based
T3 sequence (P06401 whole entry): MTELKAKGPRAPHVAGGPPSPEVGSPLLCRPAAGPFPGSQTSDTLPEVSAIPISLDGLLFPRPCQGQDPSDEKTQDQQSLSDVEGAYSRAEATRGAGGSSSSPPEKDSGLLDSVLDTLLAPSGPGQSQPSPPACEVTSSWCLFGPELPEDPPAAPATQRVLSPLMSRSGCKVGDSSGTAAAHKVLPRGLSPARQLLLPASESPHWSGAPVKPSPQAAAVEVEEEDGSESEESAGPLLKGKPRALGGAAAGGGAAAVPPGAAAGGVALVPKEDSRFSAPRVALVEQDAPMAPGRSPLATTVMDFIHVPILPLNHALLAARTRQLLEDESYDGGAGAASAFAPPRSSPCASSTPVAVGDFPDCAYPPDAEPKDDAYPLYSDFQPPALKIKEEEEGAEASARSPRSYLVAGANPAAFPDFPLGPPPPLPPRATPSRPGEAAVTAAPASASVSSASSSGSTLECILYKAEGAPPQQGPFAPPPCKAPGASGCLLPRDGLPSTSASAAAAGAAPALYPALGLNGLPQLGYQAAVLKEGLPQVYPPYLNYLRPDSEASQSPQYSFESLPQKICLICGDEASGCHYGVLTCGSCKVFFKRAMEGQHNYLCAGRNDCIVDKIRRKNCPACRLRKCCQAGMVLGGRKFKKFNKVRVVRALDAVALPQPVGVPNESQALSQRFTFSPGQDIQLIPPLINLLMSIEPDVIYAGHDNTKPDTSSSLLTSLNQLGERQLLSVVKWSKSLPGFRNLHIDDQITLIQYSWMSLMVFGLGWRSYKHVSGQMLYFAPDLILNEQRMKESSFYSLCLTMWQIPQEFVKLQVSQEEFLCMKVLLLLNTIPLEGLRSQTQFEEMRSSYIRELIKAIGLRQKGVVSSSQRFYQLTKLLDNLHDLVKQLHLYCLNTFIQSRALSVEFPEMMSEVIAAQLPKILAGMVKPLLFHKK

Glucocorticoid receptor [3] = biological target: T4, Glucocorticoid receptor (Homo sapiens, UniProt P04150); test: Antagonist activity at GAL4-fused human GR LBD (443 to 777 residues) expressed in CHO-K1 cells assessed as inhibition of dexamethasone-induced transactivation activity after 5 to 6 hrs by luciferase reporter gene assay; format: cell-based
T4 sequence (P04150 whole entry): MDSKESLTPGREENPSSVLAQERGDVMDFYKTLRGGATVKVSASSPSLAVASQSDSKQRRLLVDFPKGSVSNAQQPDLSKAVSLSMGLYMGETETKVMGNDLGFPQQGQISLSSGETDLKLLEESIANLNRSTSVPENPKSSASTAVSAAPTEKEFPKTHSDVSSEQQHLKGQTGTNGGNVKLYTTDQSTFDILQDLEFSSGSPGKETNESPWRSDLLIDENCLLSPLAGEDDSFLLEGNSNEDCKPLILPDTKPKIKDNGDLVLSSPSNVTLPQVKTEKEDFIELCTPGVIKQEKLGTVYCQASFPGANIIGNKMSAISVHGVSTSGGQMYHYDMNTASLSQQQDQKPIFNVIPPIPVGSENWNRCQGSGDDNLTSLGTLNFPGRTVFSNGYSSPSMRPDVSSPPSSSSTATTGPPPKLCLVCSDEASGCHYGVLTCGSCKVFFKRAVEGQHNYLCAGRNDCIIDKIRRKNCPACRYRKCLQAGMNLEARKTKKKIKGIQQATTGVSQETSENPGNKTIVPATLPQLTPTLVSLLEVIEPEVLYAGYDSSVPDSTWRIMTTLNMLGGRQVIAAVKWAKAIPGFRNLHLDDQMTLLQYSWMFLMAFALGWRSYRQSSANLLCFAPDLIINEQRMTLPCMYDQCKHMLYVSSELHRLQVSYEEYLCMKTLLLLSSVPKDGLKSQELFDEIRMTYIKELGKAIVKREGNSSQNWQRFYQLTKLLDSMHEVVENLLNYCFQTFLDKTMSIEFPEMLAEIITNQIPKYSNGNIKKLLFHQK

Androgen receptor = biological target: T5, Androgen receptor (Homo sapiens, UniProt P10275); test: Antagonist activity at GAL4-fused human AR LBD (667 to 919 residues) expressed in CHO-K1 cells assessed as inhibition of dihydrotestosterone-induced transactivation activity after 5 to 6 hrs by luciferase reporter gene assay; format: cell-based
T5 sequence (P10275 whole entry): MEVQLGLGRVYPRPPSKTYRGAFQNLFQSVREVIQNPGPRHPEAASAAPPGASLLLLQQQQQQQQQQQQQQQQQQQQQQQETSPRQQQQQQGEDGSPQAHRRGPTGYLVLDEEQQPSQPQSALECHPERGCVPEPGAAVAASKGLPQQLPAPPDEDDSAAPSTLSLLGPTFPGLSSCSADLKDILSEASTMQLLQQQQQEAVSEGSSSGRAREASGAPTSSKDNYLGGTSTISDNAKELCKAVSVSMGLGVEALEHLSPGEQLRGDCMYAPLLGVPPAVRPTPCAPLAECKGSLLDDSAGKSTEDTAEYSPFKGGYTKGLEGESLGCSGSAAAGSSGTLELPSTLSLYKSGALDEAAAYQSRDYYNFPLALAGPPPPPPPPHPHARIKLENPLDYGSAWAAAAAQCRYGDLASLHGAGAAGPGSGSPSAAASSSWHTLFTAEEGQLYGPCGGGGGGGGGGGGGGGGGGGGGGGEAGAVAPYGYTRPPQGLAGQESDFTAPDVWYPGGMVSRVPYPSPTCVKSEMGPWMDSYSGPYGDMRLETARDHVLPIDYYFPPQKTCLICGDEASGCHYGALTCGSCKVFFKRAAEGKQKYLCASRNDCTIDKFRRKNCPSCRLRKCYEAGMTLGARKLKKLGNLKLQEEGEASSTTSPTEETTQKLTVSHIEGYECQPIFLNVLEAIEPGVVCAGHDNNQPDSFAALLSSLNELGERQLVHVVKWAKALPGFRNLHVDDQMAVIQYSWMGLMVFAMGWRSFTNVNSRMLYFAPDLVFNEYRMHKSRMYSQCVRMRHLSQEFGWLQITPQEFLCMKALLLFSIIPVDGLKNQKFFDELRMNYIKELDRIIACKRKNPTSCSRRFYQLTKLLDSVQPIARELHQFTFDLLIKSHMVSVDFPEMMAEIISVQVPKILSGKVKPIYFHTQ

[4] = biological target: T2, Mineralocorticoid receptor; test: Antagonist activity at Gal4-fused MR LBD (unknown origin) expressed in human Huh7 cells assessed as inhibition of aldosterone-induced transcriptional activity after 3 hrs by luciferase reporter gene assay; format: cell-based
[5] = biological target: T2, Mineralocorticoid receptor; test: Displacement of [3H]-Aldosterone from MR overexpressed in human 293 cells measured after overnight incubation by TopCount method; format: cell-based
Glucocorticoid receptor [6] = biological target: T4, Glucocorticoid receptor; test: Displacement of [3H]-dexamethasone from GR overexpressed in human 293 cells measured after overnight incubation by TopCount method; format: cell-based
[7] = Half life in human liver microsomes; format: ADME, microsome
[8] = biological target: T6, Mineralocorticoid receptor (Homo sapiens) (UniProt P08235); test: Antagonist activity at full-length human MR expressed in CHO-K1 cells assessed as inhibition of aldosterone-induced response measured after overnight incubation by luminesence analysis; format: cell-based
T6 sequence (whole entry): T2 sequence (P08235 whole entry)

[9] = Half life in rat; format: ADME; settings: in vivo
[10] = Clearance in rat; format: ADME; settings: in vivo
[11] = Half life in human hepatocytes; format: ADME, cell-based, Hepatocyte

Compound: COc1cc(NC(=O)c2ccc(-c3ccccc3C(F)(F)F)c(COC(C)=O)c2)ccc1S(N)(=O)=O
- IC50 [1]: 31 nM

Compound: CCOc1nccc2c1[C@H](c1ccc(C#N)cc1OC)C(C#N)=C(C)N2
- IC50 [2]: 47 nM
- IC50 (Progesterone receptor): 5.4 µM
- IC50 (Glucocorticoid receptor [3]): 6.9 µM
- IC50 (Androgen receptor): 2800 nM

Compound: COc1cc(NC(=O)c2ccc(-c3ccccc3OC(F)(F)F)c(CCN3CC(C)OC(C)C3)c2)ccc1S(N)(=O)=O (configuration not stated)
- IC50 [1]: 61 nM

Compound: C[C@@H]1CN(c2ccc3c(n2)NC(=O)CO3)CCO1
- IC50 [4]: 3.05 µM

Compound: CC(c1ccccc1)(c1c[nH]c2c(NS(C)(=O)=O)cccc12)C1CC1 (configuration not stated)
- Ki [5]: ≤ 500 nM
- Ki (Glucocorticoid receptor [6]): ≤ 500 nM

Compound: CCC(O)C(CC)(c1ccc(C(F)(F)F)cc1)n1ncc2c(NS(C)(=O)=O)cccc21 (configuration not stated)
- half-life [7]: 72 min
- Inhibitory potency [8]: 4 nM
- half-life [9]: 318 min
- clearance [10]: 24 mL/min/kg
- half-life [11]: > 90 min

Compound: CCC(c1ccc(Br)cc1)(C(C)O)n1ncc2c(NS(C)(=O)=O)cccc21 (configuration not stated)
- half-life [7]: 48 min
- Inhibitory potency [8]: 7 nM
- half-life [11]: 69 min
